Test results as given in patent US7176320B2, “Benzimidazole derivative” (Teijin Limited, priority 2000, dated 2007).

Legend:
[1] = biological target: T1, recombinant human mast cell chymase (Homo sapiens, UniProt P23946); assay: Measurement of inhibition of enzyme activity of recombinant human mast cell chymase; type: biochemical; conditions: active human mast cell chymase, substrate succinyl-alanyl-histidyl-prolyl-phenylalanylparanitroanilide, 5 minutes at room temperature, absorbance 405 nm; read-out: inhibitory activity IC50
T1 construct: made in house; host or cells: insect cells (Th5) infected with recombinant baculovirus
T1 sequence (P23946 22-247): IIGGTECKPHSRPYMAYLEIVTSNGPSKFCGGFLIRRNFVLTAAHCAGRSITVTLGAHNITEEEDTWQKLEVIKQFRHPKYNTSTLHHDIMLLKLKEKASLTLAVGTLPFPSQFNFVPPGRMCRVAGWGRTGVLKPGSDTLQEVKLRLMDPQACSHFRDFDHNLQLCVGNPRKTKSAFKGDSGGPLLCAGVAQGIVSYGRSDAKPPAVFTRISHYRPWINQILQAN
Description: Recombinant human mast cell chymase was prepared in accordance with the report of Urata, et al. (Journal of Biological Chemistry, Vol. 266, p. 17173 (1991)). Namely, human mast cell chymase was purified by heparin sepharose (Pharmacia) from a culture supernatant of insect cells (Th5) infected with recombinant baculovirus containing cDNA coding for human mast cell chymase. Moreover, after activating in accordance with the report of Murakami, et al. (Journal of Biological Chemistry, Vol. 270, p. 2218 (1995)), the human mast cell chymase was purified with heparin sepharose to obtain active human mast cell chymase.
After adding 2 μl of DMSO solution containing a compound of the present invention to 50 μl of Buffer A (0.5–3.0 M NaCl, 50 mM Tris-HCl, pH 8.0) containing 1–5 ng of the active human mast cell chymase obtained in Example 16, 50 μl of Buffer A containing 0.5 mM succinyl-alanyl-histidyl-prolyl-phenylalanylparanitroanilide (Bacchem) as substrate were added and allowed to react for 5 minutes at room temperature. The changes over time in absorbance at 405 nm were measured to investigate inhibitory activity.

[2] = In vitro metabolism test using liver microsomes (Ms); type: in vitro ADME; conditions: liver microsomes 1.0 mg/mL, substrate 5.0 μM, NADPH 1.0 mM, 37° C.; for MR (metabolic rate at its maximum): pH 7.4
Description: The metabolic rate was determined from the decrease in the amount of the unchanged form at each reaction time and the reaction time based on assigning a value of 100% to the amount of the unchanged form at the initial concentration (reaction time: 0 minutes), and the metabolic rate at the time the metabolic rate reached a maximum was evaluated as the MR value. M=(substrate concentration at reaction time: 0 min.−substrate concentration after reaction)÷reaction time÷protein concentration (nmol/min./mg protein)

[3] = Measurement of blood concentration during administration by intragastric forced feeding to rats; type: in vivo, rat; conditions: male SD rats, fasting, 30 mg/kg, serum
Description: The compounds indicated with the above compound nos. 39, 52 and 244 were administered by intragastric forced feeding to male SD rats while fasting at a dose of 30 mg/kg, after which blood samples were collected immediately after administration and at 30 minutes and 1, 2 and 4 hours after administration. Following collection of blood samples, where samples were immediately separated into serum components, the compound of the present invention was extracted by ordinary solid phase extraction methods, and the resulting samples were analyzed by HPLC using an ODS column (32% acetonitrile-water-0.05% TFA was used for the mobile phase for compound nos. 52 and 244, while 47% acetonitrile-water-10 mM ammonium acetate buffer (pH 4.0) was used for the mobile phase for compound no. 39) followed by measurement of the amount of the unchanged form.

[4] = 30 minutes after administration

SMILES	IC50 [1]	Percentage of substrate remaining after 30 min. [2]	MR (metabolic rate at its maximum) [2]	further results
Cn1cc(Cn2c(SCCCC(=O)O)nc3ccccc32)c2ccccc21 [Compound No. 34, 4-(1-((1-methylindole-3-yl)methyl)benzimidazole-2-ylthio)butanoic acid]	0.01 to 0.1 µM	60.3%	0.260 nmol/min./mg protein	
Cc1cccc2c1c(Cn1c(SCCCC(=O)O)nc3ccccc31)cn2C [Compound No. 39]	0.001 to 0.01 µM	80.1%	0 nmol/min./mg protein	concentration at 30 min ([3]; rat, oral, 30 minutes after administration, read-out: Blood concentration of the unchanged form After 30 min.): 16.1 µg/mL; concentration at 4 h ([3]; rat, oral, 4 hours after administration, read-out: Blood concentration of the unchanged form After 4 hr.): 6.3 µg/mL
O=C(O)CCCSc1nc2ccccc2n1Cc1csc2ccccc12 [Compound No. 52]		47.5%	0.331 nmol/min./mg protein	Blood concentration of the unchanged form After 30 min. [3, 4]: 60.5 µg/mL; Blood concentration of the unchanged form After 4 hr. ([3]; 4 hours after administration): 12.7 µg/mL
Cc1ccc2scc(Cn3c(SCCCC(=O)O)nc4ccccc43)c2c1 [Compound No. 56]		41.2%	0.111 nmol/min./mg protein	
COc1ccc2c(c1)nc(SCCCC(=O)O)n2Cc1cn(C)c2cccc(C)c12 [Compound No. 135]	0.01 to 0.1 µM	55.2%	0.097 nmol/min./mg protein	
COc1ccc2c(c1)nc(SCCCC(=O)O)n2Cc1csc2ccccc12 [Compound No. 148, 4-(1-((benzothiophene-3-yl)methyl)-5-methoxybenzimidazole-2-ylthio)butanoic acid]	0.001 to 0.01 µM			
COc1ccc2c(c1)nc(SCCCC(=O)O)n2Cc1csc2ccc(C)cc12 [Compound No. 152, 4-(1-((5-methylbenzothiophene-3-yl)methyl)-5-methoxybenzimidazole-2-ylthio)butanoic acid]	0.01 to 0.1 µM			
COc1ccc2c(c1)nc(SCCCC(=O)O)n2Cc1csc2cccc(C)c12 [Compound No. 154, 4-(1-((4-methylbenzothiophene-3-yl)methyl)-5-methoxybenzimidazole-2-ylthio)butanoic acid]	0.001 to 0.01 µM			
N#Cc1ccc2c(c1)nc(SCCCC(=O)O)n2Cc1csc2ccccc12 [Compound No. 244]		57.9%	0.211 nmol/min./mg protein	Blood concentration of the unchanged form After 30 min. [3, 4]: 16.5 µg/mL; Blood concentration of the unchanged form After 4 hr. ([3]; 4 hours after administration): 8.9 µg/mL
Cc1ccc2nc(SCCCC(=O)O)n(Cc3csc4ccccc34)c2c1 [Compound No. 436]	0.01 to 0.1 µM			
Cc1cc2nc(SCCCC(=O)O)n(Cc3cn(C)c4cccc(C)c34)c2cc1C [Compound No. 519]	0.001 to 0.01 µM	52.9%	0.102 nmol/min./mg protein	
Cc1cc2nc(SCCCC(=O)O)n(Cc3csc4ccccc34)c2cc1C [Compound No. 532]	0.001 to 0.01 µM	36.2%	0.277 nmol/min./mg protein	
COc1ccc2nc(SCCCC(=O)O)n(Cc3csc4ccc(C)cc34)c2c1 [Compound No. 1112, 4-(1-((5-methylbenzothiophene-3-yl)methyl)-6-methoxybenzimidazole-2-ylthio)butanoic acid]	0.001 to 0.01 µM			
COc1ccc2nc(SCCCC(=O)O)n(Cc3csc4cccc(C)c34)c2c1 [Compound No. 1114, 4-(1-((4-methylbenzothiophene-3-yl)methyl)-6-methoxybenzimidazole-2-ylthio)butanoic acid]	0.001 to 0.01 µM			
Cc1cc2nc(SCCCC(=O)O)n(Cc3cn(C)c4ccccc34)c2cc1C [compound 514]		48.7%	0.087 nmol/min./mg protein	
Cc1ccc2scc(Cn3c(SCCCC(=O)O)nc4cc(C)c(C)cc43)c2c1 [compound 536]		56.3%	0.131 nmol/min./mg protein	
O=C(O)CCCSc1nc2cc(Cl)c(Cl)cc2n1Cc1csc2ccccc12 [compound 628]	0.01 to 0.1 µM			
